Experimental findings from the NIST ThermoML archive (doi:10.1016/j.fluid.2015.12.007) are described below.

The structures appear in SMILES notation. ± gives the expanded uncertainty stated by the source.

The conditions of this data set: 101.33 kPa, Liquid; for speed of sound: Sing-around technique in a fixed-path interferometer; for mass density: Vibrating tube method.

The term speed of sound denotes the propagation velocity of pressure waves in the medium. One may read the mass density as mass per unit of volume. In the case of `CCCCn1cc[n+](C)c1.COS(=O)(=O)[O-]` [1-butyl-3-methylimidazolium methyl sulfate], the speed of sound runs as follows: (293.15 K) 1669.8 ± 3.2 m/s; (298.15 K) 1657.1 ± 3.2 m/s; (303.15 K) 1644.6 ± 3.2 m/s; (308.15 K) 1632.4 ± 3.2 m/s; (313.15 K) 1620.4 ± 3.2 m/s; (318.15 K) 1608.8 ± 3.2 m/s. Further, the mass density is given as 1211.97 ± 2.8 kg/m3 (293.15 K); 1208.61 ± 2.8 kg/m3 (298.15 K); 1205.25 ± 2.8 kg/m3 (303.15 K); 1201.89 ± 2.8 kg/m3 (308.15 K); 1198.54 ± 2.8 kg/m3 (313.15 K); 1195.2 ± 2.8 kg/m3 (318.15 K).
As for `CCCC[n+]1ccn(C)c1.O=S(=O)([N-]S(=O)(=O)C(F)(F)F)C(F)(F)F`, the speed of sound stood at 1238.6 ± 1.2 m/s (293.15 K); 1227.4 ± 1.2 m/s (298.15 K); 1216.3 ± 1.2 m/s (303.15 K); 1205.4 ± 1.2 m/s (308.15 K); 1194.7 ± 1.2 m/s (313.15 K); 1184.1 ± 1.2 m/s (318.15 K). Moreover, the mass density (293.15 K) is given as 1440.81 ± 0.23 kg/m3; the mass density (298.15 K) is 1435.99 ± 0.23 kg/m3; the mass density (303.15 K) amounted to 1431.2 ± 0.22 kg/m3; the mass density (308.15 K) was 1426.42 ± 0.22 kg/m3; the mass density (313.15 K) is listed as 1421.66 ± 0.22 kg/m3; the mass density (318.15 K) was 1416.91 ± 0.22 kg/m3.
Regarding `CC(O)CO` (stereo not drawn) [1,2-propanediol], the speed of sound reads like this: (293.15 K) 1516.4 ± 1.3 m/s; (298.15 K) 1505.9 ± 1.3 m/s; (303.15 K) 1493.3 ± 1.3 m/s; (308.15 K) 1480 ± 1.3 m/s; (313.15 K) 1466.3 ± 1.3 m/s; (318.15 K) 1452.7 ± 1.3 m/s. Moreover, the mass density is, setting by setting: (293.15 K) 1035.73 ± 0.14 kg/m3; (298.15 K) 1032.03 ± 0.13 kg/m3; (303.15 K) 1028.31 ± 0.13 kg/m3; (308.15 K) 1024.55 ± 0.13 kg/m3; (313.15 K) 1020.75 ± 0.13 kg/m3; (318.15 K) 1016.92 ± 0.13 kg/m3.
Regarding `CCCCn1cc[n+](C)c1.F[B-](F)(F)F` [1-butyl-3-methylimidazolium tetrafluoroborate], the speed of sound (293.15 K) was found to be 1576.6 ± 1.2 m/s; the speed of sound (298.15 K) worked out at 1564.9 ± 1.2 m/s; the speed of sound (303.15 K) stood at 1553.6 ± 1.2 m/s; the speed of sound (308.15 K) is on record as 1542.2 ± 1.2 m/s; the speed of sound (313.15 K) was 1530.9 ± 1.2 m/s; the speed of sound (318.15 K) is reported as 1520 ± 1.2 m/s. Besides, the mass density was 1204.89 ± 0.15 kg/m3 (293.15 K); 1201.33 ± 0.15 kg/m3 (298.15 K); 1197.78 ± 0.15 kg/m3 (303.15 K); 1194.23 ± 0.15 kg/m3 (308.15 K); 1190.7 ± 0.15 kg/m3 (313.15 K); 1187.18 ± 0.15 kg/m3 (318.15 K).
